According to PMC7570921, “Cathepsin B-Cleavable Cyclopeptidic Chemotherapeutic Prodrugs” (Molecules, 2020):
Starred links: 1 amine or outer side, 2 acyl side, 3 side chain; linkers in the order of their positions; H or OH if unused. Residues, ends and D or L forms follow the SMILES beside them. *: point of attachment. Doxorubicin(3'-N) = COc1cccc2c1C(=O)c1c(O)c3c(c(O)c1C2=O)C[C@@](O)(C(=O)CO)C[C@@H]3O[C@H]1C[C@H](N*)[C@H](O)[C@H](C)O1; DBCO = C1#Cc2ccccc2N(*)Cc2ccccc21; Suc = O=C(CCC(=O)[*:2])[*:1]

Columns and labels:
[1] = test system: HT1080 human fibrosarcoma cells; experiment: WST-1 cell proliferation / cytotoxicity assay; format: cell-based; conditions: for Cytotoxicity (in words) / Survival Rate (SR): HT1080, 72 h; for Cytotoxicity (in words): WST-1, 5-50 μM DOX eq (Figure S14), n = 3
Protocol: Human fibrosarcoma cell line HT1080 (ATCC® CCL-121™, Manassas, VA, USA) was grown as monolayers in DMEM (1x) + GlutaMAX™-1 medium supplemented with 10% fetal calf serum and […] streptomycin and 100 IU/mL penicillin. Cells were cultivated at 37 °C in humidified 95% air and 5% CO2 atmosphere and routinely maintained by serial passage in a new medium. Prior to experiments, cells were tested for mycoplasma contamination with the MycoAlert™ kit.
Cells were seeded at a density of 8000 cells/well in a 96-well plate (clear-bottom black plate, 3603, Corning, Luzern, Switzerland) one day prior to the experiment. […] Cell proliferation assays were performed at 72 h upon incubation using a Cell Proliferation reagent (WST-1) following the manufacturer’s recommendations. The absorption was measured at 450 nm with a plate reader (Safire). The percentage of cell survival was calculated with respect to control samples treated with either medium or a solution of DMSO (50%) in serum-free medium, as follows: [A (test-conc.) − A (100% dead)/A (100% viable) − A (100% dead)] × 100. Mean values from three wells were determined and expressed as ± S.D. All assays were done in triplicates.

HT1080 cells [2] = experiment: Cell cycle analysis by flow cytometry (Hoechst 33342, Dean-Jett-Fox model); format: cell-based, human
Protocol: (§1) HT1080 cells were seeded in 6-well plates (flat-bottom cell culture microplate, 3505, Corning, Luzern, Switzerland) at a density of 150,000 cells/well and were left to attach overnight. […] Cells were incubated for 24, 48 and 72 h in the dark at 37 °C. Cells were washed 3 times with DPBS, detached from the surface with a cell-scraper and resuspended in 500 μL of DPBS. Cells were analyzed immediately on a BD LSR Fortessa cell analyzer (BD Biosciences, San Jose, CA, USA). […] For this purpose, 1 mM Tris buffer was prepared and the pH was adapted to 7.6 with 30% HCl. Igepal CA-630 and Hoechst 3342 (5 μg/mL final concentration) were added, and the reagent was filtered. […] Samples were incubated at 4 °C for 1 h and analyzed with a BDLSR Fortessa cell analyzer. Acquisition data were analyzed using FlowJo V10 software (FLOWJO, LCC, Ashland, OR, USA). For cell cycle analysis, the Dean-Jett-Fox model was used. All measurements were done in triplicates. Mean values and S.D. were calculated and plotted for each tested compound.

HT1080 cells [3] = experiment: Confocal fluorescence microscopy, co-localization (PCC) of DOX fluorescence; format: cell-based, human; conditions: 24 h incubation, 0.3 μM free DOX; mean ± SD of three images
Protocol: HT1080 cells were seeded one day before the experiment at a density of 78,500 cells in 1.3 mL of complete medium into a glass-bottom microwell dish (35 mm petri dish, 14 mm microwell, MatTek Corporation). […] Control cells were incubated in serum-free medium under the same experimental conditions. Cells were then washed with DPBS and incubated for 20 min with 1 μg/mL Hoechst 33,342 stain and 70 nM of LysoTracker® Green DND-26. Prior to imaging, cells were washed with DPBS and serum-free medium was put into every dish. Fluorescence imaging was carried our using a Zeiss LSM780 (Zeiss, Jena, Germany) inverted confocal microscope. The microscopic images were using 405 and 488 nm lasers as excitation wavelengths, 495–525, 575–625 and 415–492 nm emission filters, and an objective lens, Plan-Aprochromat 63 x/1.4 oil DIC M27. During the image acquisition time, slides were kept at 37 °C in a humidified chamber (INUBTF-WSKM-F1, Tokai Hit, Japan). ZEN 2 software (Zeiss, Jena, Germany) was used for image processing. […] […] PCC was calculated in regions of interest (ROI), separately defined for each image by masking the entire dataset with the red channel (DOX fluorescence). The value of PCC for each experiment is presented as mean ± S.D. calculated from three separate images.

HT1080 cells [4] = experiment: Flow cytometry of intracellular and nuclear DOX accumulation; format: cell-based, human; conditions: 24 h, 0.3 μM (DOX eq), isolated nuclei, triplicates
Protocol: as §1, with “compound. Fluorescence of control cells incubated in serum-free medium was subtracted from acquired DOX-emitted fluorescence.” for “compound.”

[5] = 24 h, 0.3 μM (DOX eq), mean ± S.D., n = 3
[6] = 48 hours, equimolar concentration (DOX eq)
[7] = 72 hours, equimolar concentration (DOX eq)

COc1cccc2c1C(=O)c1c(O)c3c(c(O)c1C2=O)C[C@@](O)(C(=O)CO)C[C@@H]3O[C@H]1C[C@H](NC(=O)CNC(=O)[C@H](C)NC(=O)[C@H](C)NC(=O)[C@H](CCCNC(=N)N)NC(=O)[C@H](CCCNC(=N)N)NC(=O)CNC(=O)[C@H](C)NC(=O)CNC(=O)CCC(=O)N2Cc3ccccc3C#Cc3ccccc32)[C@H](O)[C@H](C)O1 ({DBCO-Suc}-GAGRRAAG-{Doxorubicin(3'-N)})
Cytotoxicity (in words) [1]: significant cytotoxicity

COc1cccc2c1C(=O)c1c(O)c3c(c(O)c1C2=O)C[C@@](O)(C(=O)CO)C[C@@H]3O[C@H]1C[C@H](N)[C@H](O)[C@H](C)O1.Cl [DOX, Doxorubicin hydrochloride salt]
% G1 (HT1080 cells [2]; [5]): 30.4 ± 2.3%
% S (HT1080 cells [2]; [5]): 36.7 ± 11.9%
% G1 (HT1080 cells [2]; [6]): 29.2 ± 1.5%
% G2 (HT1080 cells [2]; [6]): 33.6 ± 5.7%
% S (HT1080 cells [2]; [6]): 32.3 ± 4.4%
% G1 (HT1080 cells [2]; [7]): 32.6 ± 3.2%
% G2 (HT1080 cells [2]; [7]): 27.3 ± 8.1%
% S (HT1080 cells [2]; [7]): 35.8 ± 6.7%
PCC between DOX and Hoechst 33342 (HT1080 cells [3]): 0.41 ± 0.10
DOX accumulation in the nucleus (HT1080 cells [4]): significant DOX accumulation in the nucleus
Survival Rate (SR) ([1]; WST-1, [Dox] 0.01 mM as printed, SD 9.7 wrapped): 86.4%
Survival Rate (SR) ([1]; WST-1, [Dox] 0.05 mM as printed, SD 10.6 wrapped): 81.7%
Survival Rate (SR) ([1]; WST-1, [Dox] 0.10 mM as printed, SD 9.7 wrapped): 69.9%
Survival Rate (SR) ([1]; WST-1, [Dox] 0.15 mM as printed, SD 7.3 wrapped): 53.7%
Survival Rate (SR) ([1]; WST-1, [Dox] 0.2 mM as printed, SD 4.7 wrapped): 34.6%
Survival Rate (SR) ([1]; WST-1, [Dox] 0.4 mM as printed, SD 1.3 wrapped): 6.9%
Survival Rate (SR) ([1]; WST-1, [Dox] 0.5 mM as printed, SD 0.4 wrapped): 1.3%
Survival Rate (SR) ([1]; WST-1, [Dox] 0.6 mM as printed, SD 0.5 wrapped): 0.4%
Survival Rate (SR) ([1]; WST-1, [Dox] 0.8 mM as printed, SD 0.7 wrapped): 0%
Survival Rate (SR) ([1]; WST-1, [Dox] 1.0 mM as printed, SD 0.5 wrapped): 0.4%
IC50 ([1]; HT1080, 72 h incubation, WST-1, free DOX (data not shown)): 160 nM

PEG10-GAGRRAAG-DOX
Cytotoxicity (in words) [1]: no cytotoxicity
